Measured values as given in publication PMC7115513 (European Journal of Medicinal Chemistry, 2012).
Where two headings read alike, the source gives them in different places. Marks after values point to notes of the source that are not given here.

Legend:
P. falciparum CQ^S (3D7) = assay type: cell-based, Plasmodium falciparum; details: read-out: IC50 CQ^S (3D7); CQ sensitive strain; primary screening
P. falciparum CQ^R (K1) = assay: microbe, parasite or virus in culture; assay type: cell-based, Plasmodium falciparum
[1] = tested on: Madin Darby canine kidney (MDCK) cells
[2] = pH 5.6; cited from earlier work
[3] = pH 5.8; cited from earlier work
[4] = assay type: binding; details: heme 2.4 μM, DMSO:H2O/4:6, v/v; increasing compound concentration
GC rich CT DNA = assay type: binding, calf

Question: What does the source list for “5-Ethoxycarbonyl-6-methyl-4-phenyl-2-[5-(7-chloroquinolin-4-ylamino)-2-methylpentylamino] pyrimidine [Compound 10k]”?
Answer: IC50 (P. falciparum CQ^S (3D7)): 287 nM; IC50 (P. falciparum CQ^R (K1); read-out: IC50 CQ^R (K1)): 860 nM

Question: With `NC12CC3CC(CC(C3)C1)C2` [Amantadine, reference compound] as the compound, how does the “Cytotoxicity MIC” value ([1]; dog) read?
Answer: The value was “h 50% cytotoxic concentration, as determined by measuring the cell viability with the colorimetric formazan- based MTS assay (reference drugs used: Oseltamivir carboxylate CC50/MIC >100, Ribavirin CC50/MIC >100, Amantadine CC50/MIC >200 and Rimantadine CC50/MIC >200). μM”.

Question: Which results are given for `CCN(CC)CCCC(C)Nc1ccnc2cc(Cl)ccc12` (stereo not drawn) [Compound 2, chloroquine, reference compound]?
Answer: IC50 (P. falciparum CQ^R (K1); Plasmodium falciparum, K1, read-out: IC50 CQ^R (K1)): 202 nM; Monomeric heme log K [2]: 4.82; μ-oxo heme log K [3]: 5.6 ^c

Question: With `CCOC(=O)c1c(C)nc(NCCNc2ccnc3cc(Cl)ccc23)nc1-c1ccccc1` [Compound 10a, 5-Ethoxycarbonyl-6-methyl-4-phenyl-2-[(7-chloroquinolin-4-ylamino)ethylamino] pyrimidine] as the compound, how does the “Cytotoxicity MIC” value ([1]; dog) read?
Answer: Its value is 0.8 µM.

Question: With `CCOC(=O)c1c(C)nc(NCCCNc2ccnc3cc(Cl)ccc23)nc1-c1ccccc1` [Compound 10b, 5-Ethoxycarbonyl-6-methyl-4-phenyl-2-[(7-chloroquinolin-4-ylamino)propylamino]pyrimidine] as the compound, how does the “Cytotoxicity MIC” value ([1]; dog) read?
Answer: Its value is 0.8 µM.

Question: Which “Cytotoxicity MIC” value ([1]; dog) does the source give for `CCOC(=O)c1c(C)nc(NCCCCNc2ccnc3cc(Cl)ccc23)nc1-c1ccccc1` [Compound 10c, 5-Ethoxycarbonyl-6-methyl-4-phenyl-2-[(7-chloroquinolin-4-ylamino)butylamino]pyrimidine] here?
Answer: Its value is 0.8 µM.

Question: For `CCOC(=O)c1c(C)nc(Nc2ccccc2Nc2ccnc3cc(Cl)ccc23)nc1-c1ccccc1` [Compound 10h, 5-Ethoxycarbonyl-6-methyl-4-phenyl-2-[2-(7-chloroquinolin-4-ylamino)phenylamino] pyrimidine], which “change in heme absorbance at 402 nm on titration” value [4] is on record?
Answer: Its value is “no change in the absorbance at 402 nm”.

Question: With `CCOC(=O)c1c(C)nc(Nc2ccc(Nc3ccnc4cc(Cl)ccc34)cc2)nc1-c1ccccc1` [Compound 10i, 5-Ethoxycarbonyl-6-methyl-4-phenyl-2-[4-(7-chloroquinolin-4-ylamino)phenylamino] pyrimidine] as the compound, how does the “change in heme absorbance at 402 nm on titration” value [4] read?
Answer: The value was “marked gradual decrease in absorbance at 402 nm”.

Question: With `CCOC(=O)c1c(C)nc(NCCCNc2ccnc3cc(Cl)ccc23)nc1C` [Compound 10l, 5-Ethoxycarbonyl-6-methyl-4-methyl-2-[(7-chloroquinolin-4-ylamino)propylamino]pyrimidine] as the compound, how does the “Cytotoxicity MIC” value ([1]; dog) read?
Answer: The value was 20 µM.

Question: With `CCOC(=O)c1c(C)nc(NCCCCNc2ccnc3cc(Cl)ccc23)nc1C` [Compound 10m, 5-Ethoxycarbonyl-6-methyl-4-methyl-2-[(7-chloroquinolin-4-ylamino)butylamino]pyrimidine] as the compound, how does the “Cytotoxicity MIC” value ([1]; dog) read?
Answer: The value was 4 µM.

Question: With `Cc1nc(NCCCNc2ccnc3cc(Cl)ccc23)nc(-c2cccc([N+](=O)[O-])c2)c1C(=O)OC(C)C` [Compound 10n, 5-Isopropyloxycarbonyl-6-methyl-4-(3-nitrophenyl)-2-[(7-chloroquinolin-4-ylamino)propylamino]pyrimidine] as the compound, how does the “Cytotoxicity MIC” value ([1]; dog) read?
Answer: The value was 0.8 µM.

Question: Which “Cytotoxicity MIC” value ([1]; dog) does the source give for `Cc1nc(NCCNc2ccnc3cc(Cl)ccc23)nc(-c2ccccc2[N+](=O)[O-])c1C(=O)OC(C)C` [Compound 10p, 5-Isopropyloxycarbonyl-6-methyl-4-(2-nitrophenyl)-2-[(7-chloroquinolin-4-ylamino)ethylamino] pyrimidine] here?
Answer: Its value is no less than 0.8 µM.

Question: Which results are given for `Cc1nc(NCCCCNc2ccnc3cc(Cl)ccc23)nc(-c2ccccc2[N+](=O)[O-])c1C(=O)OC(C)C` [Compound 10r, 5-Isopropyloxycarbonyl-6-methyl-4-(2-nitrophenyl)-2-[(7-chloroquinolin-4-ylamino)butylamino] pyrimidine]?
Answer: Cytotoxicity MIC ([1]; dog): 4.0 µM; binding constant (log K) from fluorescence data, CT DNA (GC rich CT DNA): 4.67

Question: For `NC(=O)c1ncn([C@@H]2O[C@H](CO)[C@@H](O)[C@H]2O)n1` [Ribavirin, reference compound], which “Cytotoxicity MIC” value ([1]; dog) is on record?
Answer: The value was “h 50% cytotoxic concentration, as determined by measuring the cell viability with the colorimetric formazan- based MTS assay (reference drugs used: Oseltamivir carboxylate CC50/MIC >100, Ribavirin CC50/MIC >100, Amantadine CC50/MIC >200 and Rimantadine CC50/MIC >200). μM”.

Question: For `CC(N)C12CC3CC(CC(C3)C1)C2` (stereo not drawn) [Rimantadine, reference compound], which “Cytotoxicity MIC” value ([1]; dog) is on record?
Answer: The value was “h 50% cytotoxic concentration, as determined by measuring the cell viability with the colorimetric formazan- based MTS assay (reference drugs used: Oseltamivir carboxylate CC50/MIC >100, Ribavirin CC50/MIC >100, Amantadine CC50/MIC >200 and Rimantadine CC50/MIC >200). μM”.

Question: What does the source list for “Oseltamivir carboxylate [reference compound]”?
Answer: CC50 [1]: > 100000 nM; Cytotoxicity MIC [1]: h 50% cytotoxic concentration, as determined by measuring the cell viability with the colorimetric formazan- based MTS assay (reference drugs used: Oseltamivir carboxylate CC50/MIC >100, Ribavirin CC50/MIC >100, Amantadine CC50/MIC >200 and Rimantadine CC50/MIC >200). μM
